Our source for the EC50 values is patent publication US8835456B1, “NS5A inhibitors useful for treating HCV” (Achillion Pharmaceuticals, Inc., priority 2011, dated 2014).

The structures appear in SMILES notation. Some results are limits rather than exact numbers.

The subject of the test is Hepatitis C replicon. Nature of the test: HCV replicon replication assay (NPT level by captured ELISA). The format is cell-based. Conditions: Hepatitis C virus, Huh-7, 72 h. As for the experimental part: Compounds claimed herein are tested for the ability to inhibit viral replication of the Hepatitis C replicon in cultured cells in which the HCV replicon construct has been incorporated. The HCV replicon system was described by Bartenschlager, et. al (Science, 285, pp. 110-113 (1999)). The replicon system is predictive of in vivo anti-HCV activity; compounds that are active in humans uniformly evidence activity in the replicon assay.
In this assay HCV replicon containing cells are treated with different concentrations of the test compound to ascertain the ability of the test compound to suppress replication of the HCV replicon. As a positive control, HCV replicon-containing cells are treated with different concentrations of interferon alpha, a known inhibitor of HCV replication. The replicon assay system includes Neomycin Phosphotransferase (NPT) as a component of the replicon itself in order to detect the transcription of replicon gene products in the host cell. Cells in which the HCV replicon is actively replicating have high levels of NPT; the level of NPT is proportional to HCV replication. […] The NPT level of each sample is measured using a captured ELISA.
A protocol for testing compounds for the ability to inhibit viral replication of the Hepatitis C replicon cultured cells in which the replicon construct has been incorporated, follows.
The HCV genome consists of a single ORF that encodes a 3000 amino acid polyprotein. The ORF is flanked on the 5′ side by an untranslated region that serves as an internal ribosome entry site (IRES) and at the 3′ side by a highly conserved sequence necessary for viral replication (3′-NTR). The structural proteins, necessary for viral infection, are located near the 5′ end of the ORF. The non-structural proteins, designated NS2 to NS5B comprise the remainder of the ORF. […]
HCV replicon-containing cells are examined under a microscope to ensure that cells growing well. […] The cells are counted. […]
Regarding `COC(=O)N[C@H](C(=O)N1C2CCC(C2)[C@H]1c1nc(-c2ccc(-c3ccc(-c4c[nH]c([C@@H]5CC6CCCCC6N5C(=O)[C@@H](NC(=O)OC)C(C)C)n4)cc3)cc2)c[nH]1)C(C)C` (stereo partly drawn) [Compound 10], the EC50 is less than 10 nM.

On to `COC(=O)N[C@H](C(=O)N1C2CCC(C2)[C@H]1c1nc(-c2ccc(-c3ccc(-c4c[nH]c([C@@H]5CC6CCCCC6N5C(=O)[C@@H](NC(=O)OC)C(C)C)n4)cc3)nc2)c[nH]1)C(C)C` (stereo partly drawn) [Compound 14], for which the EC50 is less than 10 nM.

The compound `COC(=O)N[C@H](C(=O)N1C2CCC(C2)[C@H]1c1nc(-c2ccc(-c3ccc(-c4c[nH]c([C@@H]5CC6CCCCC6N5C(=O)[C@@H](NC(=O)OC)C(C)C)n4)cc3)s2)c[nH]1)C(C)C` (stereo partly drawn) [Compound 15] gave an EC50 of less than 10 nM.
